Test results taken from patent publication US20160106773A1, “TREATMENT FOR DISEASES RELYING ON DISCOVERY THAT THIOREDOXIN MEDIATES NITRIC OXIDE RELEASE IN CELLS” (Duke University, priority 2008, published 2016).

Legend:
Assay type in all cases: in vivo
person with glioblastoma = assay: Working Example XI: patient with glioblastoma; conditions: oral capsule: 6 mg auranofin and 50 mg isosorbide dinitrate, or 6 mg auranofin and 150 mg/m^2 BCNU, or 2.5 mg auranofin and 2 gm L-BSO every 6 hours
Description: A person with glioblastoma is given orally a capsule containing 6 mg auranofin and 50 mg isosorbide dinitrate or 6 mg auranofin and 150 mg/m^2 BCNU or 2.5 mg auranofin and 2 gm L-BSO given every 6 hours. Regression in the cancer occurs.

[1] = tested on: person with large cell lymphoma disease; assay: Working Example I: patient with large cell lymphoma given auranofin plus isosorbide dinitrate; conditions: combination: 6 mg auranofin and 50 mg isosorbide dinitrate by mouth once a day for a month; patient not responding to treatment
Description: A person with large cell lymphoma disease who was not responding to treatment was given by mouth 6 mg auranofin and 50 mg isosorbide dinitrate once a day for a month. Tumor burden decreases as determined by CAT scan.

[2] = tested on: person with recurrent restenosis; assay: Working Example II: patient with recurrent restenosis given arsenic trioxide plus nitrate; conditions: combination: 0.15 mg/kg/day IV arsenic trioxide and either 60 mg isosorbide mononitrate per day or nitroglycerin patch 1-2 inches up to 4 times a day; after one month
Description: A person with recurrent restenosis is give 0.15 mg/kg/day IV arsenic trioxide and either 60 mg isosorbide mononitrate per day or nitroglycerin patch of 1-2 inches up to 4 times a day.

person with septic shock = assay: Working Example IX: patient with septic shock; conditions: combination: gene therapy for TrxIP and 15 mg/kg intravenous L-NMMA (2 mg/kg IV TID)
Description: A person with septic shock is given gene therapy for TrxIP and 15 mg/kg intravenous L-NMMA (2 mg/kg IV TID).

[3] = tested on: person with rhematoid arthritis; assay: Working Example VII: patient with rheumatoid arthritis; conditions: combination: deprenyl 10 mg plus ascorbate 1 gm plus ISDN 5 mg PO TID or plus cysteine or NaHS (final concentration in blood 10 μM-1 mM)
Description: A person with rhematoid arthritis is administered deprenyl 10 mg plus ascorbate 1 gm plus ISDN 5 mg PO TID or plus cysteine or NaHS (final concentration in blood of 10 μM-1 mM). Progression of the disease slows.

[4] = tested on: person with central core disease, malignant hyperthermia (MH); assay: Working Example VIII: patient with central core disease and malignant hyperthermia; conditions: combination: deprenyl 10 mg and ISDN 5 mg po tid
Description: A person with central core disease undergoes operation for pancreatic cancer and course complicated by malignant hyperthermia (MH). The patient is administered deprenyl 10 mg and ISDN 5 mg po tid with acute relief of MH and improvement in muscle function over time.

with muscular dystrophy = assay: Working Example V: patient with muscular dystrophy; conditions: combination: deprenyl 10 mg/day plus isosorbide dinitrate (ISDN) 10 mg/day
Description: A person with muscular dystrophy is given deprenyl 10 mg/day plus isosorbide dinitrate (ISDN) 10 mg/day and weakness improves.

65 year with Alzheimers = assay: Working Example VI: patient with Alzheimers; conditions: combination: deprenyl 15 mg and S-nitrosoglutathione 10 mg po TID
Description: A 65 year with Alzheimers is administered deprenyl 15 mg and S-nitrosoglutathione 10 mg po TID. Blood pressure is unaltered but memory improves.

[5] = tested on: person with pancreatic cancer; assay: Working Example X: patient with pancreatic cancer; conditions: combination: gene therapy for TrxIP and 10 gms sodium ascorbate by infusion per day
Source text: A person with pancreatic cancer is given gene therapy for TrxIP and by infusion per day 10 gms of sodium ascorbate. The cancer regresses.

[6] = tested on: person with Parkinson's disease; assay: Working Example III: patient with Parkinson's disease; conditions: combination: orally 300 mg N-acetylcysteine and 0.3 mg aptamer directed at Parkin by injection into spinal fluid, 30 days
Description: A person with Parkinson's disease is given orally 300 mg N-acetylcysteine and 0.3 mg dose by injection into spinal fluid (range may be 10 μg-2 mg of body weight) of aptamer directed at Parkin for 30 days. Movement improves.

person with Alzheimer's = assay: Working Example IV: patient with Alzheimer's; conditions: combination: NAC 300 mg/day, ascorbate 1 gm/day and minocycline 100 mg TID
Description: A person with Alzheimer's is then started on combination of NAC (300 mg/day), ascorbate 1 gm/day and minocycline 100 mg TID and memory improves.

**Q.** Which “Regression in the cancer” value (person with glioblastoma) does the source give for `CC(=O)OC[C@H]1O[C@@H]([S-])[C@H](OC(C)=O)[C@@H](OC(C)=O)[C@@H]1OC(C)=O.CCP(CC)CC.[Au+]` [auranofin] here?
**A.** The value was “Regression”.

**Q.** And the “Tumor burden as determined by CAT scan” value [1]?
**A.** The value was “decreases”.

**Q.** Which results are given for `O=[N+]([O-])O[C@@H]1CO[C@H]2[C@@H]1OC[C@@H]2O` [isosorbide mononitrate]?
**A.** disease (restenosis) [2]: abates; incidence of thrombotic complication [2]: disappears; restenosis recurrence [2]: does not reoccur

**Q.** What does the source list for arsenic trioxide?
**A.** disease (restenosis) [2]: abates; incidence of thrombotic complication [2]: disappears; restenosis recurrence [2]: does not reoccur

**Q.** For `CC(=O)O.CNC(=N)NCCC[C@H](N)C(=O)O` [L-NMMA, Ng-monomethyl-L-arginine, monoacetate salt], which Blood pressure (person with septic shock) is on record?
**A.** Its Blood pressure is “increases and stabilizes”.

**Q.** With `CCCCS(=N)(=O)CCC(N)C(=O)O` [L-BSO, L-buthionine-SR-sulfoximine] as the compound, how does the “Regression in the cancer” value (person with glioblastoma) read?
**A.** Its value is “Regression”.

**Q.** Which “Progression of the disease” value [3] does the source give for `[Na+].[SH-]` [NaHS] here?
**A.** The value was “slows”.

**Q.** Which results are given for `C#CCN(C)[C@H](C)Cc1ccccc1` [deprenyl]?
**A.** muscle function over time [4]: improvement; relief of MH (malignant hyperthermia) [4]: acute relief; weakness (with muscular dystrophy): improves; Blood pressure (65 year with Alzheimers): unaltered; memory (65 year with Alzheimers): improves; Progression of the disease [3]: slows

**Q.** For `O=C1O[C@H]([C@@H](O)CO)C([O-])=C1O.[Na+]` [sodium ascorbate], which cancer regression [5] is on record?
**A.** Its cancer regression is “regresses”.

**Q.** How did the Movement [6] turn out when `CC(=O)N[C@@H](CS)C(=O)O` [N-acetylcysteine] was run?
**A.** The Movement was “improves”.

**Q.** What about the memory (person with Alzheimer's) of the same compound?
**A.** Its memory is “improves”.

**Q.** With `N[C@@H](CS)C(=O)O` [cysteine] as the compound, how does the “Progression of the disease” value [3] read?
**A.** The value was “slows”.

**Q.** Which memory (65 year with Alzheimers) does the source give for `N[C@@H](CCC(=O)N[C@@H](CSN=O)C(=O)NCC(=O)O)C(=O)O` [S-nitrosoglutathione] here?
**A.** The memory was “improves”.

**Q.** How did the “muscle function over time” value [4] turn out when `O=[N+]([O-])O[C@H]1CO[C@H]2[C@@H]1OC[C@H]2O[N+](=O)[O-]` [isosorbide dinitrate] was run?
**A.** The value was “improvement”.

**Q.** And the “relief of MH (malignant hyperthermia)” value [4]?
**A.** Its value is “acute relief”.

**Q.** What about the “Regression in the cancer” value (person with glioblastoma) of the same compound?
**A.** Its value is “Regression”.

**Q.** And the weakness (with muscular dystrophy)?
**A.** The weakness was “improves”.

**Q.** What about the “Tumor burden as determined by CAT scan” value [1] of the same compound?
**A.** Its value is “decreases”.

**Q.** And the “Progression of the disease” value [3]?
**A.** The value was “slows”.

**Q.** For `O=NN(CCCl)C(=O)NCCCl` [BCNU, carmustine], which “Regression in the cancer” value (person with glioblastoma) is on record?
**A.** Its value is “Regression”.

**Q.** How did the “disease (restenosis)” value [2] turn out when `O=[N+]([O-])OCC(CO[N+](=O)[O-])O[N+](=O)[O-]` [nitroglycerin] was run?
**A.** Its value is “abates”.

**Q.** What about the “incidence of thrombotic complication” value [2] of the same compound?
**A.** The value was “disappears”.

**Q.** What about the restenosis recurrence [2] of the same compound?
**A.** Its restenosis recurrence is “does not reoccur”.
